Results on three compounds are retold here after paper PMC4457528, “Identification of Novel Small Molecule Inhibitors of Oncogenic RET Kinase” (PLoS ONE, 2015).

Read-outs that look alike come from different tables or passages of the source.

Holding throughout (test): KinomeScan kinase panel, single concentration 10 µM
Common to all, as to assay type: binding

The target of test [1] is T1, KinomeScan kinase panel (Homo sapiens, UniProt O95835).
T1 construct: purchased DiscoveRx (KinomeScan)
T1 sequence (O95835 1-1130): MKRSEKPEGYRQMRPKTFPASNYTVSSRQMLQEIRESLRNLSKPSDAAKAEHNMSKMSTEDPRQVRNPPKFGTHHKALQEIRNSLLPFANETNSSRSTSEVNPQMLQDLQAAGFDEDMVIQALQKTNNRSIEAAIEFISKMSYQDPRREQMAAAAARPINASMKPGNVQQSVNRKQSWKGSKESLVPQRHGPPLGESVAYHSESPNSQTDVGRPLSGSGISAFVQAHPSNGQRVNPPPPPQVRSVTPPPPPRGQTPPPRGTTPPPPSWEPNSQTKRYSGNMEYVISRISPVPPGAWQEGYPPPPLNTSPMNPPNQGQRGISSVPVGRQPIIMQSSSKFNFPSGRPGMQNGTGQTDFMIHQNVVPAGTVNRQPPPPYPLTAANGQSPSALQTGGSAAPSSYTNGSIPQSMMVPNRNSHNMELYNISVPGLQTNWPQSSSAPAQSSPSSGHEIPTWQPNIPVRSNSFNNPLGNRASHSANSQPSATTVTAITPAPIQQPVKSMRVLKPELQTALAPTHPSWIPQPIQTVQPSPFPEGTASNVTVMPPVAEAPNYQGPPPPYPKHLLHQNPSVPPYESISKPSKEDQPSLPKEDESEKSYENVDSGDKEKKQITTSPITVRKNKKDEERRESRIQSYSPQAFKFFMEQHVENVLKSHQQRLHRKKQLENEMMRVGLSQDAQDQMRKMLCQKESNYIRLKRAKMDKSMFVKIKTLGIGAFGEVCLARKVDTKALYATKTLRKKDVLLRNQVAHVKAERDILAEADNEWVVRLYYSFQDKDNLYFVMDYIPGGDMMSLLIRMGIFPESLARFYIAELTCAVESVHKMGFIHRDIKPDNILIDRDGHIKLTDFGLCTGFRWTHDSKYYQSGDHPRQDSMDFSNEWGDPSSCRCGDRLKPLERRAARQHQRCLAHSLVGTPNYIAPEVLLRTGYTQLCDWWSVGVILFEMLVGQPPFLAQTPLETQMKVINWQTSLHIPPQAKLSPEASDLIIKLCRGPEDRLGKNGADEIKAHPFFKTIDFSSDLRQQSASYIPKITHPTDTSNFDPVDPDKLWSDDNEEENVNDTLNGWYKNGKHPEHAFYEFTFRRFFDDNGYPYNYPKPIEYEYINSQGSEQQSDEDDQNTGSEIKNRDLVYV
The note with it: LATS1, 10 µM; read-out: score (%).

The target in test [2] is T2, KinomeScan kinase panel (Homo sapiens, UniProt O43293).
T2 construct: purchased DiscoveRx (KinomeScan)
The note with it: DAPK3, 10 µM; read-out: score (%).

For test [3], the target named is T3, KinomeScan kinase panel (Homo sapiens, UniProt Q8N568).
T3 construct: purchased DiscoveRx (KinomeScan)
As to conditions: DCAMKL2, 10 µM; read-out: score (%).

The target in test [4] is T4, KinomeScan kinase panel (Homo sapiens, UniProt Q05655).
T4 construct: purchased DiscoveRx (KinomeScan)
As to conditions: 10 µM, read-out: score (%).

For test [5], the target named is T5, KinomeScan kinase panel (Homo sapiens, UniProt P08631).
T5 construct: purchased DiscoveRx (KinomeScan)
The note with it: HCK, 10 µM; read-out: score (%).

For test [6], the target named is T6, KinomeScan kinase panel (Homo sapiens, UniProt O00750).
T6 construct: purchased DiscoveRx (KinomeScan)
The note with it: PIK3C2B, 10 µM; read-out: score (%).

Test [7] deals with T7, KinomeScan kinase panel (Homo sapiens, UniProt P36896).
T7 construct: purchased DiscoveRx (KinomeScan)
T7 sequence (P36896 24-505): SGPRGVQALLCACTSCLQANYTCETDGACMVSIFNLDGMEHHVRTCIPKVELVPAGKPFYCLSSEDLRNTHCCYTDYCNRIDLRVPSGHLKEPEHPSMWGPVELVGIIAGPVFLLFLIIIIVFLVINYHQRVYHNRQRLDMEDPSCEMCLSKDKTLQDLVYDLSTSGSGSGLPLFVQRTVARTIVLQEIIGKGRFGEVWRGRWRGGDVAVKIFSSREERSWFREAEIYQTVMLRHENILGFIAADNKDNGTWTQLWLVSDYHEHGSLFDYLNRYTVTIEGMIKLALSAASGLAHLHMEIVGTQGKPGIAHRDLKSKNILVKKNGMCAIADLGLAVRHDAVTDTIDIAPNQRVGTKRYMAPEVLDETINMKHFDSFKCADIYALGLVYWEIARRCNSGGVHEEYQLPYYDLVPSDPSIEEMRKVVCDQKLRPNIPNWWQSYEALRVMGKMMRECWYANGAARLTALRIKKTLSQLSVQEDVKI
As to conditions: ACVR1B, 10 µM; read-out: score (%).

T6 sequence (O00750 whole entry): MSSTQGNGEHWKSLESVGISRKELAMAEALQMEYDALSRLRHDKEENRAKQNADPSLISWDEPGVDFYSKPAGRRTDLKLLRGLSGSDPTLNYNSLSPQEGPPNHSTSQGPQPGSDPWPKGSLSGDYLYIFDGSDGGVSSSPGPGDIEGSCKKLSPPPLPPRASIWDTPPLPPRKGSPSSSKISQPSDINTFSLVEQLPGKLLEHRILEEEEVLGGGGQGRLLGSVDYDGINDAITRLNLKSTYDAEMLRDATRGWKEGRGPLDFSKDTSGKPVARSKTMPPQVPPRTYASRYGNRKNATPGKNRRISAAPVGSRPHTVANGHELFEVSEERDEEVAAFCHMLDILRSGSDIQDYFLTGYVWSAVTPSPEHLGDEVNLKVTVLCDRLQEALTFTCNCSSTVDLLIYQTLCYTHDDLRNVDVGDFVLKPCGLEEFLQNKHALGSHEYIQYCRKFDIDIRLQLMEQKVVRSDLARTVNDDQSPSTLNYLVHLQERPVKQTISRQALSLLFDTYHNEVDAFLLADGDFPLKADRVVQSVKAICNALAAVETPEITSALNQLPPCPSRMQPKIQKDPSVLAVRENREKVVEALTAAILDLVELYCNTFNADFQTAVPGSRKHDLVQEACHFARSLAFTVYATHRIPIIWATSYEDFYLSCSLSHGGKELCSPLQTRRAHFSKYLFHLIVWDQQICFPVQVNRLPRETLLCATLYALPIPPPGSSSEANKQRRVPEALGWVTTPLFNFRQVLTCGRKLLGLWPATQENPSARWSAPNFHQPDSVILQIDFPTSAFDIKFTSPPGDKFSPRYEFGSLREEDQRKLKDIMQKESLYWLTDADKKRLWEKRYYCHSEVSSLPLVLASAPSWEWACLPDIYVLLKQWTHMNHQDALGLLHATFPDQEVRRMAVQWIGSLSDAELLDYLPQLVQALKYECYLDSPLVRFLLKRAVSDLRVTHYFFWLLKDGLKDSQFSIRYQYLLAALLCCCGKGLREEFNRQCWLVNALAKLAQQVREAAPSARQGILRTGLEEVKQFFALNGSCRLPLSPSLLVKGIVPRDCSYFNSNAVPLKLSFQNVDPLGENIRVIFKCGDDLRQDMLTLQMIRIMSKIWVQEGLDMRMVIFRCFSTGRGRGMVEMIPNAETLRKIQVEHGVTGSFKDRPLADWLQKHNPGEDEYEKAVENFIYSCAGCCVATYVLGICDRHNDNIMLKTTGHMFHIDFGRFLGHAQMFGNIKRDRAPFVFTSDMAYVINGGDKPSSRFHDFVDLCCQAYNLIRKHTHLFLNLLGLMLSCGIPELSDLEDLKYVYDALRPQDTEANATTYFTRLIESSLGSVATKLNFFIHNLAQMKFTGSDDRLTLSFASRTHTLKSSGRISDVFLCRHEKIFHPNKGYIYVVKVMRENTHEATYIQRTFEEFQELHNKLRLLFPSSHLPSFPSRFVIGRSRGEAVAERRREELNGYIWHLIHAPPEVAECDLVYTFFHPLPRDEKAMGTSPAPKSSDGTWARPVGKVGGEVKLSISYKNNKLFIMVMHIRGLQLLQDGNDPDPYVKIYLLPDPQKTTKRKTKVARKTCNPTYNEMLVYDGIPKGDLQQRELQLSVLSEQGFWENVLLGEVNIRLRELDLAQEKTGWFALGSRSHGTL
T4 sequence (Q05655 whole entry): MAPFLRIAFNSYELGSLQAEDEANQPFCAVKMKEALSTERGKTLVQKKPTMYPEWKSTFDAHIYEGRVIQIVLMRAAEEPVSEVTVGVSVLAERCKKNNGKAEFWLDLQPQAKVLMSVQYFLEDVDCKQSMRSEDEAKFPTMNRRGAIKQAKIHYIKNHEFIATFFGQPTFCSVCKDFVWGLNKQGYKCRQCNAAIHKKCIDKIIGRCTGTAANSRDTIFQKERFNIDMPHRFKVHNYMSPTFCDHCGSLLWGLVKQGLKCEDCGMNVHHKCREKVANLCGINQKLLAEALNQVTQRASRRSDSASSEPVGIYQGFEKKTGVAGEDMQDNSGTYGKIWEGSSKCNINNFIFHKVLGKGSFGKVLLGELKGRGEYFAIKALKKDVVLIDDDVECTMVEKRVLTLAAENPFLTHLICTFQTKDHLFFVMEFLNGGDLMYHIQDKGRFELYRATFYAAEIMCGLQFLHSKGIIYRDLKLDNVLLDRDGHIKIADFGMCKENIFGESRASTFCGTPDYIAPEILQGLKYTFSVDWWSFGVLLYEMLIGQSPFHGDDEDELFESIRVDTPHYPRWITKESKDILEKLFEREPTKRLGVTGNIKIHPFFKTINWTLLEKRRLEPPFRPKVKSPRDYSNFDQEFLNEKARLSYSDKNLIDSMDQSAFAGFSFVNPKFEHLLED
T5 sequence (P08631 whole entry): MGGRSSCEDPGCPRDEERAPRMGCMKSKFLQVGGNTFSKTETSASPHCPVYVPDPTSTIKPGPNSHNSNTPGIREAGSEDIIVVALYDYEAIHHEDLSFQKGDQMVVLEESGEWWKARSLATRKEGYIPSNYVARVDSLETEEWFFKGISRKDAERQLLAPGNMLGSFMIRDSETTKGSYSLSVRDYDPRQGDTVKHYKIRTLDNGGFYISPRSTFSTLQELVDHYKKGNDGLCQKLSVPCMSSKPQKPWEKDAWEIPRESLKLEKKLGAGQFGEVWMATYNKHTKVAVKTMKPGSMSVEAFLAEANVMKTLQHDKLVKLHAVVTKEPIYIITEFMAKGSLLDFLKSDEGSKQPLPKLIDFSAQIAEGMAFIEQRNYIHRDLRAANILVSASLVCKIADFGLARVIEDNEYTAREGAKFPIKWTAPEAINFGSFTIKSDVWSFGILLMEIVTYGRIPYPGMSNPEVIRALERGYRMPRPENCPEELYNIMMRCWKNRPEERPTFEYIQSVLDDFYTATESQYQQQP
T3 sequence (Q8N568 whole entry): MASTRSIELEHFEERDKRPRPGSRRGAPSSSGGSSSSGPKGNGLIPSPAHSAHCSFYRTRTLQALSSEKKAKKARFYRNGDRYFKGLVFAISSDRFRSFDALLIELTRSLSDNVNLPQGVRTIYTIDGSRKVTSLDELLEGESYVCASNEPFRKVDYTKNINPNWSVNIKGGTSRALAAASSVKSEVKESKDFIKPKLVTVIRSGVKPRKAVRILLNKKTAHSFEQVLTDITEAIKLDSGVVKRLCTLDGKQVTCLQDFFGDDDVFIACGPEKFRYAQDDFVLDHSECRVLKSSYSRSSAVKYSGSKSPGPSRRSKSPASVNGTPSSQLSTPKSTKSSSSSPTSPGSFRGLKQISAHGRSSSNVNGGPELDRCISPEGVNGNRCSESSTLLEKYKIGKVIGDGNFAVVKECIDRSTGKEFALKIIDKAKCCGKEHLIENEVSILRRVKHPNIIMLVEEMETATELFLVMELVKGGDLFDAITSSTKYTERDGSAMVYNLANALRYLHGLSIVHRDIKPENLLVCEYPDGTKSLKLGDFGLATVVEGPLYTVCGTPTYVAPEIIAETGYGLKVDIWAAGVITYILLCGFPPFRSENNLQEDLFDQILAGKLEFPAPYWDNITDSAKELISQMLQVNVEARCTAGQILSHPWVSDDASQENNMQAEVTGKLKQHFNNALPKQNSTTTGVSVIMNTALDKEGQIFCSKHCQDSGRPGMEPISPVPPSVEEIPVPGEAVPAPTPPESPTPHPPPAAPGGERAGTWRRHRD
T2 sequence (O43293 whole entry): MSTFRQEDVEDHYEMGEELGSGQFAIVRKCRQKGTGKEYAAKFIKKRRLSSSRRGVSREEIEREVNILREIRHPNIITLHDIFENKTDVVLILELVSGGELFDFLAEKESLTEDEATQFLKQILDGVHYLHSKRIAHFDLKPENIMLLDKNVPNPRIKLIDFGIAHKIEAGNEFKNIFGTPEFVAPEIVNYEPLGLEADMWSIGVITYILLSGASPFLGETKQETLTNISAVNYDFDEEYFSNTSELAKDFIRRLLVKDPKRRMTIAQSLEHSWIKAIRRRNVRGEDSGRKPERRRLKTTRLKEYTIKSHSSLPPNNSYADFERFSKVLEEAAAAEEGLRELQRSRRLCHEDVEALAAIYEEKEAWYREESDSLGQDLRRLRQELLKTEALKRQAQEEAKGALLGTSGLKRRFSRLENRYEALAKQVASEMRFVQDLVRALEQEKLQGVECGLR

With `CCN1CCN(Cc2ccc(NC(=O)c3ccc(C)c(NC(=O)c4cncc(-c5cccs5)c4)c3)cc2C(F)(F)F)CC1` [ALW-II-41-27], the remaining binding at 10 µM at KinomeScan kinase panel [1] was > 30%; on KinomeScan kinase panel [2], > 30%; at KinomeScan kinase panel [3] it was > 30%; on KinomeScan kinase panel [4] (PRKCD), 1.2%; at KinomeScan kinase panel [5], 0.2%; at KinomeScan kinase panel [6], > 30%. On KinomeScan kinase panel [7], the remaining binding at 10 µM was > 30%.

Turning to `CCN1CCN(Cc2ccc(NC(=O)c3ccc(C)c(/C=C/c4cnc5[nH]ccc5c4Cl)c3)cc2C(F)(F)F)CC1` [HG-6-63-01, (E)-3-(2-(4-chloro-1H-pyrrolo[2,3-b]pyridin-5-yl)vinyl)-N-(4-((4-ethylpiperazin-1-yl)methyl)-3-(trifluoromethyl)phenyl)-4-methylbenzamide], the remaining binding at 10 µM on KinomeScan kinase panel [1] is > 30%; on KinomeScan kinase panel [2], > 30%; at KinomeScan kinase panel [3] it was > 30%; on KinomeScan kinase panel [4] (PRKCD), > 30%; at KinomeScan kinase panel [5], 0.3%; on KinomeScan kinase panel [6] it was > 30%. Also, the remaining binding at 10 µM on KinomeScan kinase panel [7] is > 30%.

On to `CCN1CCN(Cc2ccc(NC(=O)c3ccc(C)c(C#Cc4cccnc4)c3)cc2C(F)(F)F)CC1` [XMD15-44], for which the remaining binding at 10 µM on KinomeScan kinase panel [1] is 20%; at KinomeScan kinase panel [2], > 30%; at KinomeScan kinase panel [3] it was > 30%; on KinomeScan kinase panel [4] (kinase PRKCD), 39%; at KinomeScan kinase panel [5], 0.05%; at KinomeScan kinase panel [6], 100%. The remaining binding at 10 µM at KinomeScan kinase panel [7] is > 30%.
